Source: patent US8802673B2, “Heterocyclic amine derivatives” (Hoffmann-La Roche Inc, priority 2011, dated 2014)
Counter-ions that a name gives are not always drawn.

Assays:
mouse TAAR1 = mouse TAAR1 (Mus musculus (Mouse), UniProt Q923Y8); assay: Radioligand binding assay on mouse TAAR1; settings: mouse TAAR1 (first value of the cell), HEK-293 membranes; read-out: Ki (μM) mouse/rat
Description: (§1) Construction of TAAR Expression Plasmids and Stably Transfected Cell Lines
(§2) For the construction of expression plasmids the coding sequences of human, rat and mouse TAAR 1 were amplified from genomic DNA essentially as described by Lindemann et al.. The Expand High Fidelity PCR System (Roche Diagnostics) was used with 1.5 mM Mg^2+ and purified PCR products were cloned into pCR2.1-TOPO cloning vector (Invitrogen) following the instructions of the manufacturer. PCR products were subcloned into the pIRESneo2 vector (BD Clontech, Palo Alto, Calif.), and expression vectors were sequence verified before introduction in cell lines.
(§3) HEK293 cells (ATCC #CRL-1573) were cultured essentially as described by Lindemann et al. (2005). For the generation of stably transfected cell lines HEK293 cells were transfected with the pIRESneo2 expression plasmids containing the TAAR coding sequences (described above) with Lipofectamine 2000 (Invitrogen) according to the instructions of the manufacturer, and 24 hrs post transfection the culture medium was supplemented with 1 mg/ml G418 (Sigma, Buchs, Switzerland). After a culture period of about 10 d clones were isolated, expanded and tested for responsiveness to trace amines (all compounds purchased from Sigma) with the cAMP Biotrak Enzyme immunoassay (EIA) System (Amersham) following the non-acetylation EIA procedure provided by the manufacturer.
Radioligand Binding Assay on Mouse TAAR1
Membrane Preparation and Radioligand Binding.
(§4) HEK-293 cells stably expressing mouse TAAR1 were maintained at 37° C. and 5% CO2 in DMEM high glucose medium, containing fetal calf serum (10%, heat inactivated for 30 min at 56° C.), penicillin/streptomycin (1%), and 375 μg/ml geneticin (Gibco). Cells were released from culture flasks using trypsin/EDTA, harvested, washed twice with ice-cold PBS (without Ca^2+ and Mg^2+), pelleted at 1,000 rpm for 5 min at 4° C., frozen and stored at −80° C. Frozen pellets were suspended in 20 ml HEPES-NaOH (20 mM, pH 7.4) containing 10 mM EDTA and homogenized with a Polytron (PT 6000, Kinematica) at 14,000 rpm for 20 s. The homogenate was centrifuged at 48,000×g for 30 min at 4° C. Subsequently, the supernatant was removed and discarded, and the pellet resuspended in 20 ml HEPES-NaOH (20 mM, pH 7.4) containing 0.1 mM EDTA using the Polytron (20 s at 14,000 rpm). This procedure was repeated and the final pellet resuspended in HEPES-NaOH containing 0.1 mM EDTA and homogenized using the Polytron. Typically, aliquots of 2 ml membrane portions were stored at −80° C. With each new membrane batch the dissociation constant (Kd) was determined via a saturation curve. […] All compounds were tested at a broad range of concentrations (10 pM to 10 μM) in duplicates. […] The 96 deep well plates were incubated for 1 hr at 4° C. Incubations were terminated by rapid filtration through Unifilter-96 plates (Packard Instrument Company) and glass filters GF/C (Perkin Elmer) presoaked for 1 hr in polyethylenimine (0.3%) and washed 3 times with 1 ml of cold binding buffer. After addition of 45 μl of Microscint 40 (PerkinElmer) the Unifilter-96 plate was sealed and after 1 hr the ratioactivity counted using a TopCount Microplate Scintillation Counter (Packard Instrument Company).

rat TAAR1 = rat TAAR1 (Rattus norvegicus (Rat), UniProt Q923Y9); assay: Radioligand binding assay on rat TAAR1; settings: rat TAAR1 (second value of the cell), HEK-293 membranes; read-out: Ki (μM) mouse/rat
Description: as §1, §2, §3
Radioligand Binding Assay on Rat TAAR1
Membrane Preparation and Radioligand Binding
as §4, with “rat” for “mouse”

Chain of rat TAAR1 (Q923Y9 whole entry): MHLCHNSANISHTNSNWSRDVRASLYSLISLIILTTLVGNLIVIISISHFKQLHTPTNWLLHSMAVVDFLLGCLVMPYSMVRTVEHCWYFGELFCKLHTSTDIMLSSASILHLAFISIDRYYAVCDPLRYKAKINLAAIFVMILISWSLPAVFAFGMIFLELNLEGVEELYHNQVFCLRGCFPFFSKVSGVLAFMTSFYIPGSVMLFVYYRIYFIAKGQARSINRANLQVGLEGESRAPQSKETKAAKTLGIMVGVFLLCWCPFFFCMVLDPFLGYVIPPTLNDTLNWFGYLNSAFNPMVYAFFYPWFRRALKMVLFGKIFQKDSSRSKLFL
Chain of mouse TAAR1 (Q923Y8 whole entry): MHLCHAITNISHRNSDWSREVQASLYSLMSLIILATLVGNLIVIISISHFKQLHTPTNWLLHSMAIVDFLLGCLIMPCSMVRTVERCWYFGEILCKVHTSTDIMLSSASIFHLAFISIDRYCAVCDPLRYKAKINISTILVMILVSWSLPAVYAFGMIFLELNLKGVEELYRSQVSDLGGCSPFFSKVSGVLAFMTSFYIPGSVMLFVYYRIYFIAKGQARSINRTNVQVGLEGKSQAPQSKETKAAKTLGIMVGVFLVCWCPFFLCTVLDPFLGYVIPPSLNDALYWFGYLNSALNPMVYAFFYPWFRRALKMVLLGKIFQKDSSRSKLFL

Question: With `CC(Nc1ccc([C@H]2CNCCO2)cc1)c1ccc(Cl)cc1` (mixture of isomers) [Example 70, [(RS)-1-(4-Chloro-phenyl)-ethyl]-((S)-4-morpholin-2-yl-phenyl)-amine] as the molecule, how does the Ki (mouse TAAR1) read?
Answer: 0.523 µM

Question: What about the Ki (rat TAAR1) of the same molecule?
Answer: 4.07 µM

Question: Which results are given for `Cc1cc(C)nc(Nc2ccc(C3CCNC3)cc2)n1` (racemic) [Example 1, (RS)-(4,6-Dimethyl-pyrimidin-2-yl)-(4-pyrrolidin-3-yl-phenyl)-amine; hydrochloride]?
Answer: Ki (mouse TAAR1): 0.074 µM; Ki (rat TAAR1): 1.51 µM

Question: `FC(F)(F)C(Nc1ccc(CCC2CCCNC2)cc1)c1ccc(Cl)cc1` (racemic) [Example 4, (RS)-[1-(4-Chloro-phenyl)-2,2,2-trifluoro-ethyl]-[(RS)-4-(2-piperidin-3-yl-ethyl)-phenyl]-amine] was tested. Which Ki (mouse TAAR1) did it give?
Answer: 0.122 µM

Question: And the Ki (rat TAAR1)?
Answer: 0.0785 µM

Question: With `Clc1ccc(Nc2ccc(C3CNCCO3)cc2)nc1` (racemic) [Example 5, (RS)-(5-Chloro-pyridin-2-yl)-(4-morpholin-2-yl-phenyl)-amine] as the molecule, how does the Ki (mouse TAAR1) read?
Answer: 0.0011 µM

Question: What about the Ki (rat TAAR1) of the same molecule?
Answer: 0.029 µM

Question: What does the source list for `Clc1cnc(Nc2ccc(C3CNCCO3)cc2)nc1` (racemic) [Example 6, (RS)-(5-Chloro-pyrimidin-2-yl)-(4-morpholin-2-yl-phenyl)-amine]?
Answer: Ki (mouse TAAR1): 0.0133 µM; Ki (rat TAAR1): 0.232 µM

Question: Which results are given for `Clc1ccc(Nc2ccc(C3CNCCO3)cc2)cc1` (racemic) [Example 8, (RS)-(4-Chloro-phenyl)-(4-morpholin-2-yl-phenyl)-amine]?
Answer: Ki (mouse TAAR1): 0.0005 µM; Ki (rat TAAR1): 0.0325 µM

Question: For `Clc1ccc(CNc2ccc(C3CNCCO3)cc2)cc1` (racemic) [Example 9, (RS)-(4-Chloro-benzyl)-(4-morpholin-2-yl-phenyl)-amine], which Ki (mouse TAAR1) is on record?
Answer: 0.0181 µM

Question: What about the Ki (rat TAAR1) of the same molecule?
Answer: 0.0893 µM

Question: `Cc1cc(C2CNCCO2)ccc1Nc1ccc(Br)cn1` (racemic) [Example 76, (RS)-5-Bromo-N-(2-methyl-4-(morpholin-2-yl)phenyl)pyridin-2-amine] was tested. Which Ki (mouse TAAR1) did it give?
Answer: 0.0024 µM

Question: What about the Ki (rat TAAR1) of the same molecule?
Answer: 0.045 µM

Question: For `Cc1cc(C2CNCCO2)ccc1Nc1ccc(Cl)cc1` (racemic) [Example 79, (RS)-(4-Chloro-phenyl)-(2-methyl-4-morpholin-2-yl-phenyl)-amine], which Ki (mouse TAAR1) is on record?
Answer: 0.0047 µM

Question: What about the Ki (rat TAAR1) of the same molecule?
Answer: 0.0716 µM

Question: Which Ki (mouse TAAR1) does the source give for `Cc1cc(C2CNCCO2)ccc1Nc1ccc(Cl)cn1` (racemic) [Example 80, (RS)-(5-Chloro-pyridin-2-yl)-(2-methyl-4-morpholin-2-yl-phenyl)-amine] here?
Answer: 0.0026 µM

Question: What about the Ki (rat TAAR1) of the same molecule?
Answer: 0.0626 µM

Question: With `Cc1cc(C2CNCCO2)ccc1Nc1ncc(Cl)cn1` (racemic) [Example 81, (RS)-(5-Chloro-pyrimidin-2-yl)-(2-methyl-4-morpholin-2-yl-phenyl)-amine] as the molecule, how does the Ki (mouse TAAR1) read?
Answer: 0.0162 µM

Question: And the Ki (rat TAAR1)?
Answer: 0.203 µM

Question: Which Ki (mouse TAAR1) does the source give for `Cc1cc(Nc2ccc(C3CNCCO3)cc2C)ncc1Cl` (racemic) [Example 84, (RS)-5-Chloro-4-methyl-N-(2-methyl-4-(morpholin-2-yl)phenyl)pyridin-2-amine] here?
Answer: 0.0015 µM

Question: And the Ki (rat TAAR1)?
Answer: 0.057 µM

Question: Which Ki (mouse TAAR1) does the source give for `Cc1cc(Nc2ccc(C3CNCCO3)cc2C)ncc1Br` (racemic) [Example 85, (RS)-5-Bromo-4-methyl-N-(2-methyl-4-(morpholin-2-yl)phenyl)pyridin-2-amine] here?
Answer: 0.0014 µM

Question: And the Ki (rat TAAR1)?
Answer: 0.0194 µM

Question: What does the source list for `CCc1cnc(Nc2ccc(C3CNCCO3)cc2C)nc1` (racemic) [Example 88, (RS)-5-Ethyl-N-(2-methyl-4-(morpholin-2-yl)phenyl)pyrimidin-2-amine]?
Answer: Ki (mouse TAAR1): 0.008 µM; Ki (rat TAAR1): 0.0874 µM

Question: Which Ki (mouse TAAR1) does the source give for `Cc1cc(C2CNCCO2)ccc1Nc1ncc(Br)cn1` (racemic) [Example 89, (RS)-5-Bromo-N-(2-methyl-4-(morpholin-2-yl)phenyl)pyrimidin-2-amine] here?
Answer: 0.0139 µM

Question: What about the Ki (rat TAAR1) of the same molecule?
Answer: 0.177 µM

Question: For `Clc1ccc(Nc2ccc(C3CNCCO3)cn2)nc1` (racemic) [Example 90, (RS)-5-Chloro-N-(5-(morpholin-2-yl)pyridin-2-yl)pyridin-2-amine], which Ki (mouse TAAR1) is on record?
Answer: 0.0196 µM

Question: And the Ki (rat TAAR1)?
Answer: 0.232 µM

Question: What does the source list for `c1nc(Nc2ccc(C3CNCCO3)cn2)ncc1C1CC1` (racemic) [Example 92, (RS)-5-Cyclopropyl-N-(5-(morpholin-2-yl)pyridin-2-yl)pyrimidin-2-amine]?
Answer: Ki (mouse TAAR1): 0.0229 µM; Ki (rat TAAR1): 0.275 µM

Question: How did the Ki (mouse TAAR1) turn out when `Fc1cc(C2CNCCO2)ccc1Nc1ncc(Cl)cn1` (racemic) [Example 96, (RS)-5-Chloro-N-(2-fluoro-4-(morpholin-2-yl)phenyl)pyrimidin-2-amine] was run?
Answer: 0.0062 µM

Question: And the Ki (rat TAAR1)?
Answer: 0.0216 µM

Question: For `Fc1cc(C2CNCCO2)ccc1Nc1ccc(Cl)cn1` (racemic) [Example 99, (RS)-5-Chloro-N-(2-fluoro-4-(morpholin-2-yl)phenyl)pyridin-2-amine], which Ki (rat TAAR1) is on record?
Answer: 0.0185 µM

Question: Which Ki (mouse TAAR1) does the source give for `c1cc(Nc2ccc(C3CNCCO3)cc2)[nH]n1` (racemic) [Example 155, (RS)-(4-Morpholin-2-yl-phenyl)-(1H-pyrazol-3-yl)-amine] here?
Answer: 0.6 µM

Question: Which Ki (rat TAAR1) does the source give for `Brc1cnc(Nc2ccc([C@@H]3CNCCO3)cc2)nc1` [Example 94, (5-Bromo-pyrimidin-2-yl)-((R)-4-morpholin-2-yl-phenyl)-amine] here?
Answer: 0.0489 µM

Question: With `Brc1ccc(Nc2ccc([C@@H]3CNCCO3)cn2)nc1` [Example 108, (R)-5-Bromo-N-(5-(morpholin-2-yl)pyridin-2-yl)pyridin-2-amine] as the molecule, how does the Ki (rat TAAR1) read?
Answer: 0.216 µM

Question: How did the Ki (rat TAAR1) turn out when `Brc1ccc(Nc2ccc([C@H]3CNCCO3)cn2)nc1` [Example 109, (S)-5-Bromo-N-(5-(morpholin-2-yl)pyridin-2-yl)pyridin-2-amine] was run?
Answer: 0.362 µM

Question: With `Cc1cc([C@@H]2CNCCO2)ccc1Nc1ncc(C2CC2)cn1` [Example 110, (5-Cyclopropyl-pyrimidin-2-yl)-((R)-2-methyl-4-morpholin-2-yl-phenyl)-amine] as the molecule, how does the Ki (rat TAAR1) read?
Answer: 0.0306 µM

Question: For `Cc1cc([C@H]2CNCCO2)ccc1Nc1ncc(C2CC2)cn1` [Example 111, (5-Cyclopropyl-pyrimidin-2-yl)-((S)-2-methyl-4-morpholin-2-yl-phenyl)-amine], which Ki (rat TAAR1) is on record?
Answer: 0.0322 µM

Question: Which Ki (rat TAAR1) does the source give for `Fc1cc([C@@H]2CNCCO2)ccc1Nc1ncc(C2CC2)cn1` [Example 118, (5-Cyclopropyl-pyrimidin-2-yl)-((R)-2-fluoro-4-morpholin-2-yl-phenyl)-amine] here?
Answer: 0.003 µM

Question: Which Ki (rat TAAR1) does the source give for `Fc1cc([C@H]2CNCCO2)ccc1Nc1ncc(C2CC2)cn1` [Example 119, (5-Cyclopropyl-pyrimidin-2-yl)-((S)-2-fluoro-4-morpholin-2-yl-phenyl)-amine] here?
Answer: 0.0051 µM

Question: For `Fc1cc([C@@H]2CNCCO2)ccc1Nc1ncc(Br)cn1` [Example 126, (5-Bromo-pyrimidin-2-yl)-((R)-2-fluoro-4-morpholin-2-yl-phenyl)-amine], which Ki (rat TAAR1) is on record?
Answer: 0.0096 µM

Question: `Fc1cc([C@H]2CNCCO2)ccc1Nc1ncc(Br)cn1` [Example 127, (5-Bromo-pyrimidin-2-yl)-((S)-2-fluoro-4-morpholin-2-yl-phenyl)-amine] was tested. Which Ki (rat TAAR1) did it give?
Answer: 0.0165 µM
